Results published in patent publication US9771325B2, “Tricyclic compounds and preparation thereof” (Council of Scientific & Industrial Research, priority 2014, dated 2017).

Legend:
[1] = test system: Lung NCI-H358 cancer cell line; assay: SRB assay for anticancer activity, NCI-H358; assay type: cell-based, human; conditions: 48 h; for inhibition at 10 µM: Homo sapiens, read-out: % Inhibition at 10 μM Solution in Cancer Cell Line
[2] = test system: Breast (MCF-7) cancer cell line; assay: SRB assay for anticancer activity, MCF-7; assay type: cell-based, human; conditions: for inhibition at 10 µM: Homo sapiens, MCF7, 48 h, read-out: % Inhibition at 10 μM Solution in Cancer Cell Line
Procedure: (§1) SRB Assay Protocol for Anticancer Activity:
(§2) Addition of cells: The human cancer cell lines Ovary (SK-OV-3), Lung (A549) and Breast (MCF-7) maintained in RPMI-1640 medium; Cervical (HeLa), Head & Neck (FaDu) and Colorectal adenocarcinoma (SW620) are maintained in DMEM medium. The enumerated cells are dispensed in a 96-well tissue culture plate. Each well receives 100 μl of the cell suspension containing 10,000-20,000 cells (depending upon the nature of cell line). The cells are then incubated at 37° C. in 5% CO2 concentration for 24 h before addition of the test samples/standard drugs.
(§3) Addition of test samples: 100 μl of working solution of the test sample is added to the cell monolayer to give a final concentration 10 μM (pure compound) For each sample, duplicate wells are included.
(§4) Positive (Drug) and Negative (Vehicle) Controls: In every assay plate both positive and vehicle controls are included. In positive control well, adriamycin (Doxorubicin) is added at 10 μM concentration. In vehicle control wells, DMSO is added. In all assay wells the final concentration of DMSO is 0.1%. The plates are then incubated at 37° C. in 5% CO2 concentration for 48 h.
(§5) Addition of SRB and Colorimetric reading: After 48 h incubation, cells attached to substratum of the plate are fixed by adding cold 50% trichloroacetic acid (TCA, 50 μl/well) on top of the medium and incubated at 4° C. for 1 h. After that the plate is gently washed 5 times with slow running tap water via plastic tubing to remove TCA, culture medium and dead cells. The water stream should not be injected very fast or directly on to the bottom of the wells as this can cause cell monolayer to detach. After washing, the plates are allowed to dry in air (plates can be stored for long periods at room temperature after fixing and drying step) […], 50 μl/well of SRB solution is added and left at room temperature for 30 min. At the end of the staining period, unbound SRB is removed by quickly rinsing plates 4-5 times with 1% (v/v) acetic acid. Plates are allowed to air-dry at room temperature (Stained and dried plates can be stored indefinitely at room temperature). 150 μl of 10 mM Tris base solution is added to each well and plate is shaken for 15 min on a gyratory shaker to solubilize the protein-bound dye. Alternatively, if a shaker is unavailable, SRB gets solubilized after 30 min in Tris base solution. Absorbance is measured at 510 nm in a microplate spectrophotometer.
(§6) Percentage of cell growth inhibition in presence of the test sample is calculated as follows: […]

[3] = test system: Colon DLD-1 cancer cell line; assay: SRB assay for anticancer activity, DLD-1; assay type: cell-based, human; conditions: 48 h; for inhibition at 10 µM: Homo sapiens, read-out: % Inhibition at 10 μM Solution in Cancer Cell Line
[4] = test system: cervical C-33A cancer cell line; assay: SRB assay for anticancer activity, C-33A; assay type: cell-based, human; conditions: 48 h; for inhibition at 10 µM: Homo sapiens, read-out: % Inhibition at 10 μM Solution in Cancer Cell Line
[5] = test system: Colon COLO205 cancer cell line; assay: SRB assay for anticancer activity, COLO205; assay type: cell-based, human; conditions: for inhibition at 10 µM: Homo sapiens, COLO 205, 48 h, read-out: % Inhibition at 10 μM Solution in Cancer Cell Line
[6] = test system: Cervical (HeLa) cancer cell line; assay: SRB assay for anticancer activity, HeLa; assay type: cell-based, human; conditions: 48 h; for inhibition at 10 µM: Homo sapiens, read-out: % Inhibition at 10 μM Solution in Cancer Cell Line
Procedure: as §1, §2, §3, §4, §5, §6

[7] = test system: Colorectal adenocarcinoma (SW620) cell line; assay: SRB assay for anticancer activity, SW620; assay type: cell-based, human; conditions: for inhibition at 10 µM: Homo sapiens, SW-620, Colon SW620, 48 h, read-out: % Inhibition at 10 μM Solution in Cancer Cell Line
Procedure: as §1, §2, §3, §4, §5, §6

[8] = test system: Lung NCI-H446 cancer cell line; assay: SRB assay for anticancer activity, NCI-H446; assay type: cell-based, human; conditions: 48 h; for inhibition at 10 µM: Homo sapiens, read-out: % Inhibition at 10 μM Solution in Cancer Cell Line
[9] = test system: Ovary (SK-OV-3) cancer cell line; assay: SRB assay for anticancer activity, SK-OV-3; assay type: cell-based, human; conditions: for inhibition at 10 µM: Homo sapiens, SK-OV-3, Ovary SKOV3, 48 h, read-out: % Inhibition at 10 μM Solution in Cancer Cell Line
Procedure: as §1, §2, §3, §4, §5, §6

[10] = test system: Ovary NIH:OVACR-3 cancer cell line; assay: SRB assay for anticancer activity, NIH:OVACR-3; assay type: cell-based, human; conditions: 48 h; for inhibition at 10 µM: Homo sapiens, read-out: % Inhibition at 10 μM Solution in Cancer Cell Line
[11] = test system: Lung (A549) cancer cell line; assay: SRB assay for anticancer activity, A549; assay type: cell-based, human; conditions: 48 h; for inhibition at 10 µM: Homo sapiens, read-out: % Inhibition at 10 μM Solution in Cancer Cell Line
Procedure: as §1, §2, §3, §4, §5, §6

[12] = test system: Breast MDA-MB-231 cancer cell line; assay: SRB assay for anticancer activity, MDA-MB-231; assay type: cell-based, human; conditions: 48 h; for inhibition at 10 µM: Homo sapiens, read-out: % Inhibition at 10 μM Solution in Cancer Cell Line
[13] = test system: Ovary PA1 cancer cell line; assay: SRB assay for anticancer activity, PA1; assay type: cell-based, human; conditions: 48 h; for inhibition at 10 µM: Homo sapiens, read-out: % Inhibition at 10 μM Solution in Cancer Cell Line
[14] = test system: Head & Neck (FaDu) cancer cell line; assay: SRB assay for anticancer activity, FaDu; assay type: cell-based, human; conditions: 48 h; for inhibition at 10 µM: Homo sapiens, read-out: % Inhibition at 10 μM Solution in Cancer Cell Line
Procedure: as §1, §2, §3, §4, §5, §6

[15] = test system: Head & Neck KB cancer cell line; assay: SRB assay for anticancer activity, KB; assay type: cell-based, human; conditions: 48 h; for inhibition at 10 µM: Homo sapiens, read-out: % Inhibition at 10 μM Solution in Cancer Cell Line
KB cells = conditions: Chinese Chemical Letters 2013, 24, 57-58, read-out: cytotoxicity against KB cells in vitro, IC50; cited from earlier work

Work on `CCOC(=O)C1(C(=O)OCC)Cc2ccc3c(c2C1)C(=O)NC3=O` [Compound 18, Diethyl 1,3-dioxo-2,3,6,8-tetrahydrocyclopenta[e]isoindole-7,7(1H)-dicarboxylate] yielded an inhibition at 10 µM [1] of 0%, an inhibition at 10 µM [2] of 6.84% and an inhibition at 10 µM [3] of 0%. It also gave an inhibition at 10 µM [4] of 0%, an inhibition at 10 µM [5] of 0% and an inhibition at 10 µM [6] of 20.9%. For the same compound, the inhibition at 10 µM [7] was 13.2%, the inhibition at 10 µM [8] was 0% and the inhibition at 10 µM [9] was -1.46%. For the same compound, the inhibition at 10 µM [10] was 0%, the inhibition at 10 µM [11] was 28.8% and the inhibition at 10 µM [12] was 0%. The inhibition at 10 µM [13] was 0%, the inhibition at 10 µM [14] was -0.05% and the inhibition at 10 µM [15] was 0%.
`CCOC(=O)C1(C(=O)OCC)Cc2ccc3c(c2C1)C(=O)N(CCO)C3=O` [Compound 19, Diethyl 2-(2-hydroxyethyl)-1,3-dioxo-2,3,6,8-tetrahydrocyclopenta[e]isoindole-7,7(1H)-dicarboxylate] gave an inhibition at 10 µM [1] of 0%, an inhibition at 10 µM [2] of 3.44% and an inhibition at 10 µM [3] of 0%. It also gave an inhibition at 10 µM [4] of 0%, an inhibition at 10 µM [5] of 0% and an inhibition at 10 µM [6] of 25.7%. It also gave an inhibition at 10 µM [7] of 15.2%, an inhibition at 10 µM [8] of 0% and an inhibition at 10 µM [9] of -3.91%. The inhibition at 10 µM [10] was 0%, the inhibition at 10 µM [11] was 29% and the inhibition at 10 µM [12] was 0%. For the same compound, the inhibition at 10 µM [13] was 0%, the inhibition at 10 µM [14] was 0.16% and the inhibition at 10 µM [15] was 0%.
In the case of `CCOC(=O)C1(C(=O)OCC)Cc2cc(C)c3c(c2C1)C(=O)N(CCO)C3=O` [Compound 23, Diethyl 2-(2-hydroxyethyl)-4-methyl-1,3-dioxo-2,3,6,8-tetrahydrocyclopenta[e]isoindole-7,7(1H)-dicarboxylate], the inhibition at 10 µM [1] is reported as 0%, the inhibition at 10 µM [2] is reported as 8.24% and the inhibition at 10 µM [3] is reported as 0%. It also gave an inhibition at 10 µM [4] of 0%, an inhibition at 10 µM [5] of 0% and an inhibition at 10 µM [6] of 31%. For the same compound, the inhibition at 10 µM [7] was 13.3%, the inhibition at 10 µM [8] was 0% and the inhibition at 10 µM [9] was -7.23%. The inhibition at 10 µM [10] was 0%, the inhibition at 10 µM [11] was 19.2% and the inhibition at 10 µM [12] was 0%. The inhibition at 10 µM [13] was 0%, the inhibition at 10 µM [14] was 11% and the inhibition at 10 µM [15] was 0%.
`CCOC(=O)C1(C(=O)OCC)Cc2cc(C)c3c(c2C1)C(=O)NC3=O` [Compound 22, Diethyl 4-methyl-1,3-dioxo-2,3,6,8-tetrahydrocyclopenta[e]isoindole-7,7(1H)-dicarboxylate] showed an inhibition at 10 µM [1] of 0%, an inhibition at 10 µM [2] of 10.4% and an inhibition at 10 µM [3] of 0%. For the same compound, the inhibition at 10 µM [4] was 0%, the inhibition at 10 µM [5] was 0% and the inhibition at 10 µM [6] was 34.3%. It also gave an inhibition at 10 µM [7] of 15.4%, an inhibition at 10 µM [8] of 0% and an inhibition at 10 µM [9] of -9.36%. For the same compound, the inhibition at 10 µM [10] was 0%, the inhibition at 10 µM [11] was 27% and the inhibition at 10 µM [12] was 0%. The inhibition at 10 µM [13] was 0%, the inhibition at 10 µM [14] was 10.3% and the inhibition at 10 µM [15] was 0%.
In the case of `Cc1cc2c(c3c1C(=O)NC3=O)C(O)C(C)(C)C2` (stereo not shown) [Compound 1], the IC50 (KB cells) is given as 16.6 µM.
Work on `CCOC(=O)C1(C(=O)OCC)Cc2cc(C)c3c(c2C1)C(=O)N(S(=O)(=O)c1ccc(F)cc1)C3=O` [Compound 24, Diethyl 2-((4-fluorophenyl)sulfonyl)-4-methyl-1,3-dioxo-2,3,6,8-tetrahydrocyclopenta[e]isoindole-7,7(1H)-dicarboxylate] yielded an inhibition at 10 µM [1] of 0%, an inhibition at 10 µM [2] of 34.9% and an inhibition at 10 µM [3] of 0%. The inhibition at 10 µM [4] was 0%, the inhibition at 10 µM [5] was 0% and the inhibition at 10 µM [6] was 65.2%. It also gave an inhibition at 10 µM [7] of 50.5%, an inhibition at 10 µM [8] of 0% and an inhibition at 10 µM [9] of 21.2%. The inhibition at 10 µM [10] was 0%, the inhibition at 10 µM [11] was 48.2% and the inhibition at 10 µM [12] was 0%. It also gave an inhibition at 10 µM [13] of 0%, an inhibition at 10 µM [14] of 59.4% and an inhibition at 10 µM [15] of 0%.
For `COc1cccc2c1C(=O)c1c(O)c3c(c(O)c1C2=O)C[C@@](O)(C(=O)CO)C[C@@H]3O[C@H]1C[C@H](N)[C@H](O)[C@H](C)O1` [Doxorubicin, reference compound], the inhibition at 10 µM [1] was 0%, the inhibition at 10 µM [2] was 66.7% and the inhibition at 10 µM [3] was 0%. For the same compound, the inhibition at 10 µM [4] was 0%, the inhibition at 10 µM [5] was 0% and the inhibition at 10 µM [6] was 89.5%. It also gave an inhibition at 10 µM [7] of 80.3%, an inhibition at 10 µM [8] of 0% and an inhibition at 10 µM [9] of 58%. It also gave an inhibition at 10 µM [10] of 0%, an inhibition at 10 µM [11] of 69.1% and an inhibition at 10 µM [12] of 0%. For the same compound, the inhibition at 10 µM [13] was 0%, the inhibition at 10 µM [14] was 89.6% and the inhibition at 10 µM [15] was 0%.
With “8-Hydroxy-4,7,7-trimethyl-7,8-dihydrocyclopenta[e]isoindole-1,3(2H,6H)-dione [Compound 8]” the “% Inhibition at 10 μM Solution in Cancer Cell Line” value (“% Inhibition at 10 μM Solution” below) [1] was 0.00%, the “% Inhibition at 10 μM Solution” value ([2]; 48 h) was 4.31% and the “% Inhibition at 10 μM Solution” value [3] was 0.00%. For the same compound, the “% Inhibition at 10 μM Solution” value [4] was 0.00%, the “% Inhibition at 10 μM Solution” value ([5]; 48 h) was 0.00% and the “% Inhibition at 10 μM Solution” value [6] was 29.05%. For the same compound, the “% Inhibition at 10 μM Solution” value ([7]; Colon SW620, 48 h) was −11.48%, the “% Inhibition at 10 μM Solution” value [8] was 0.00% and the “% Inhibition at 10 μM Solution” value ([9]; Ovary SKOV3, 48 h) was 5.55%. For the same compound, the “% Inhibition at 10 μM Solution” value [10] was 0.00%, the “% Inhibition at 10 μM Solution” value [11] was 6.05% and the “% Inhibition at 10 μM Solution” value [12] was 0.00%. For the same compound, the “% Inhibition at 10 μM Solution” value [13] was 0.00%, the “% Inhibition at 10 μM Solution” value [14] was 2.10% and the “% Inhibition at 10 μM Solution” value [15] was 0.00%.
